From patent US20050107611A1, “Pyrazolyl-substituted triazoloquinoxalines” (priority 2001, published 2005)

Assays:
[1] = target: T1, human A3 adenosine receptor (Homo sapiens, UniProt P0DMS8); assay: Receptor binding assay with [3H]PSB-11 on recombinant A3-adenosine receptors expressed in CHO cells; conditions: for Ki: Table 2, [3H]PSB-11, read-out: A3 K1
T1 construct: expressed in transfected cells; host or cells: CHO cells
T1 sequence (P0DMS8 1-318): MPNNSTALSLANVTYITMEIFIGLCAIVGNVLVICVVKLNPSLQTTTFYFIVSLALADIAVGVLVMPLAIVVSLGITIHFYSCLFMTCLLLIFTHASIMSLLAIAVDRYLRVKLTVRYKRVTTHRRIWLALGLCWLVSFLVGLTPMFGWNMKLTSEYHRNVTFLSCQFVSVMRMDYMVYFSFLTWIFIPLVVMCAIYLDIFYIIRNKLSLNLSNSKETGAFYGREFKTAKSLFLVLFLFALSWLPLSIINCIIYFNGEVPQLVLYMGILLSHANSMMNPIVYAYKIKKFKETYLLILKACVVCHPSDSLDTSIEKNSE
Excerpt: (§1) The data of the biological tests that are cited below results from radioligand-binding assays on A1, A2A, A2B and A3 adenosine receptors (ARs).
(§2) The following selective radioligands are used in the biological tests: • [^3H]CCPA (for A1 ARs) [Klotz et al., Naunyn-Schmiedeberg's Arch. Pharmacol., 340, 679 (1989)] • [^3]MSX-2 (for A2A ARs) [Muiller et al., Eur. J. Pharm. Sci., 10, 259 (2000)] • [^3H]ZM241385 (for A2B ARs_[X.-D. Ji, K. A. Jacobson, Drug Des. Discov., 16, 217 (1999)] • [^3H]PSB-11 (new antagonistic radioligand for human A3 ARs) [M. Dieckmann, M. Thorand, V. Ozola, C. E. Muiller, in Vorbereitung [Preparation] (2001)]. • [^125I]AB-MECA (for rat-A3 ARs) [Olah et al., Mol. Pharmacol., 45, 978 (1994)]. Description of the Assays That are Used for Testing Substances Production of Tissue Preparations Made from Rat Brains
For CHO cells, which express the A3-adenosine receptor, the operating steps are also performed analogously to the A1-adenosine receptor-CHO culture. The medium is used as described above.
Preparation of Recombinant Human A3-Adenosine Receptors Expressed in CHO Cells for A3-Adenosine Receptor Binding Studies
2 to 3 ml of ice-cold TRIS buffer (pH 7.4; 50 mmol) is added to the tissue culture dishes. The cells are scraped off from the plates with a rubber scraper and collected in a beaker. The plates are rinsed with another 1 to 2 ml of TRIS buffer (pH 7.4; 50 mmol). The cell suspension is dispersed into centrifuge tubes and centrifuged at 4° C., 35,000 g, for 20 minutes. The supernatant is discarded, and the pellet is resuspended in TRIS buffer (pH 7.4; 50 mmol) with the homogenizer at the highest level for 3 to 4 seconds. This suspension is again centrifuged. The washing process is repeated another time. The pellet that is obtained is resuspended with the least possible TRIS buffer (pH 7.4; 50 mmol) and delivered in aliquots (0.25 ml and 0.5 ml).
(§3) The test substances are dissolved in DMSO to 10 mmol. The final concentration of DMSO in the assay is 2.5% for A1- and A2A-adenosine receptor assays and 1-2% for A2B- and A3-assays. Dilution series of the test substances are produced from the stock solution. Five to eight different test concentrations, which comprise 3 orders of magnitude (e.g., 1 nm to 1000 nm), are used.
Receptor Binding Assay with [^3H]PSB-11 on Recombinant A3-Adenosine Receptors Expressed in CHO Cells:
The assay is performed with […] according to the instructions under the receptor-binding assays with consideration for the above-listed amounts and solutions. The dilution in the assay is 1:50. The DMSO content is 2% here. The incubation at 23° C. in the oscillating water bath lasts for 45 minutes.
(§4) The mean value is calculated from three independent experiments. IC50 and K, values are obtained from the Cheng-Prusoff equation, the concentration and the KD value of the radioligand. For calculation, the program GraphPadPrism™, Version 3.0 (GraphPad, San Diego, Calif., USA), was used.

A2A adenosine receptor = A2A adenosine receptor (Rattus norvegicus, UniProt P30543); assay: Receptor binding assay with [3H]MSX-2 on A2A-adenosine receptors; parameters: tissue Pel Freez Company (Rogers, Ark., USA); host or cells: rat brain striatum membranes; conditions: for Ki: Table 2, [3H]MSX-2, read-out: A2A K1
Excerpt: as §1, §2
The cell decomposing of the cerebral cortex is carried out with a glass-Teflon homogenizer (stages 5-6, 10 seconds) in 0.32 M saccharose solution. The membranes are purified over various centrifuging steps. With centrifuging at 600 g, 4° C., for 10 minutes, a large amount of cell debris is separated via the P1 fraction, and the supernatant (P2 fraction) is further worked up: in the subsequent three centrifuging steps (35,000 g; 4° C.; 60 minutes), a pellet is produced that is resuspended in 50 mmol of TRIS buffer, pH 7.4 with the Ultraturrax (stages 3-4, 3 seconds); the respective supernatant is discarded. The striata are added to cold TRIS buffer, homogenized with the Ultraturrax in stages 3 to 4-(3 seconds) and then centrifuged at 35,000 g, 4° C., for 20 minutes. The supernatant is discarded, and the pellet is resuspended in 50 mmol of TRIS buffer (50 mmol, pH 7.4). The washing process is repeated twice more. The membrane preparations are stored at −80° C. and are held for several months. The cerebral cortex membrane preparation is used for A1-radioligand binding studies, and the striatum is used for A2A-radiologiand binding studies.
as §3
Receptor Binding Assay with [^3H]MSX-2 on A2A-Adenosine Receptors:
• 25 μl of DMSO, NECA (800 μmol) or test substance dilutions • 775 μl of TRIS buffer (for production, see above) • 100 μl of [^3H]MSX-2 (final concentration 1 nmol; KD value 8 nmol) • 100 μl of rat-striatum-membrane preparation or preparation of CHO cells, which express the human A2A receptor, incubated with 0.12 IE adenosine-deaminase (protein concentration: 25-75 μg/ml) • 1000 μl of final volume
The assay is performed according to the instructions of the receptor-binding assay with [^3H]CCPA with consideration of the amounts and solutions that are listed above. The incubation time is 30 minutes at 23° C. in an oscillating water bath. The glass fiber filter is introduced 30 minutes before use in 0.5% PEI solution.
as §4

Chain of A2A adenosine receptor (P30543 whole entry): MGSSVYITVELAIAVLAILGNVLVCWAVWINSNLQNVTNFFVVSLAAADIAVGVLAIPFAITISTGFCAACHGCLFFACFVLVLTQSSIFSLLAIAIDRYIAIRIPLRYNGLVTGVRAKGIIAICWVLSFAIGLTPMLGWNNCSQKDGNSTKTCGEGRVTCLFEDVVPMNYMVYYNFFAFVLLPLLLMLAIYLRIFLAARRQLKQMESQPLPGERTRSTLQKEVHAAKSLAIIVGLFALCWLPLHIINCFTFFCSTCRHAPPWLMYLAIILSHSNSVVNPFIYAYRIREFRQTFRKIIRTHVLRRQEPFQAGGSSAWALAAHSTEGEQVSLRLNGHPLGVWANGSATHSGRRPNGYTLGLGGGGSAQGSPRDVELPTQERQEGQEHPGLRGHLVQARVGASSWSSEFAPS

A3 % inhib. @ 1 μmol [1] | Ki [1] [nM] | Ki (A2A adenosine receptor) [nM] | Compound | A2A % inhib. @ 10 μmol (A2A adenosine receptor)
– | 1.9 | 4960 | COc1ccc2c(c1)nc(-c1cc(Cl)n[nH]1)c1nnc(Cc3cccs3)n12 [4-[3(5)-Chloro-1H-pyrazol-5(3)-yl]-7-methoxy-1-(2-thienylmethyl)-[1,2,4]triazolo[4,3-a]-quinoxaline] | –
(31%) | > 1000 | 1260 | Clc1cc(-c2nc3ccccc3n3c(-c4ccoc4)nnc23)n[nH]1 [Y = C-(3-Furyl), R5 = H, R6 = Cl] | –
– | 86 | 8610 | Cn1nc(-c2nc3ccccc3n3c(Cc4cccs4)nnc23)cc1Cl [Y = C—CH2-(2-Thienyl), R5 = CH3, R6 = Cl, 4-(5-Chloro-1H-1-methyl-pyrazol-3-yl)-1-(2-thienylmethyl)-[1,2,4]triazolo[4,3-a]-quinoxaline] | –
– | 372 | > 10000 | COc1ccc2c(c1)nc(-c1cc(Cl)[nH]n1)c1nncn12 [Y = C—H, R3 = OCH3, R5 = H, R6 = Cl, 4-[3(5)-Chloro-1H-pyrazol-5(3)-yl]-7-methoxy-[1,2,4]triazolo[4,3-a]-quinoxaline] | (1%)
(53%) | – | 6130 | Clc1cc(-c2nc3ccccc3n3nnnc23)n[nH]1 [Y = N, R5 = H, R6 = Cl, 4-[3(5)-Chloro-1H-pyrazol-5(3)-yl]tetrazolo[1,5-a]quinoxaline] | –

Compound | A3 % inhib. @ 1 μmol [1] | Ki [1] [nM] | Ki (A2A adenosine receptor) [nM] | A2A % inhib. @ 10 μmol (A2A adenosine receptor)
4-(chloropyrazolyl)-1-(3-phenylpropyl)-[1,2,4-]triazolo[4,3-a]quinoxaline [Y = C—CH2—CH2—CH2-Ph, R5 = H, R6 = Cl] | (32%) | > 1000 | > 10000 | (6%)
Clc1cc(-c2nc3ccccc3n3cnnc23)[nH]n1 [Y = C—H, R5 = H, R6 = Cl] | – | 142 | > 10000 | (21%)
